Results from patent US9340803B2, “3-hydroxypropionic acid and other organic compounds” (Cargill, Incorporated, priority 2000, dated 2016).

Experiments:
[1] = system: CoA transferase (propionyl-CoA transferase or pct) from Megasphaera elsdenii; test: CoA transferase activity assay (DTNB/citrate synthase coupled, OD 412 nm) with cell free extract; assay type: biochemical; conditions: 25 μM CoA-ester substrate, 200 mM sodium acetate, pH 7.0; cell free extract of E. coli expressing the CoA transferase
Experimental: The plasmid was transformed into Tuner (DE3) pLacI chemically competent cells (Novagen, Madison, Wis.), and expression from the construct tested. Briefly, a culture was grown overnight to saturation and diluted 1:20 the following morning in fresh LB medium with the appropriate antibiotics. The culture was grown at 37° C. with aeration to an OD600 of about 0.6. The culture was induced with IPTG at a final concentration of 100 μM. The culture was incubated for an additional two hours at 37° C. with aeration. Aliquots were taken pre-induction and 2 hours post-induction for SDS-PAGE analysis. A band of the expected molecular weight (55,653 Daltons predicted from the sequence) was observed after IPTG treatment. This band was not observed in cells containing a plasmid lacking the nucleic acid encoding the transferase.
Cell free extracts were prepared to assess enzymatic activity. Briefly, the cells were harvested by centrifugation and disrupted by sonication. The sonicated cell suspension was centrifuged to remove cell debris, and the supernatant was used in the assays.
Transferase activity was measured in the following assay. The assay mixture used contained 100 mM potassium phosphate buffer (pH 7.0), 200 mM sodium acetate, 1 mM dithiobisnitrobenzoate (DTNB), 500 μM oxaloacetate, 25 μM CoA-ester substrate, and 3 μg/mL citrate synthase. If present, the CoA transferase transfers the CoA from the CoA ester to acetate to form acetyl-CoA. The added citrate synthase condenses oxaloacetate and acetyl-CoA to form citrate and free CoASH. The free CoASH complexes with DTNB, and the formation of this complex can be measured by a change in the optical density at 412 nm. The activity of the CoA transferase was measured using the following substrates: lactyl-CoA, propionyl-CoA, acrylyl-CoA, and 3-hydroxypropionyl-CoA. The units/mg of protein was calculated using the following formula: (ΔE/min*Vf*dilution factor)/(VS*14.2)=units/mL where ΔE/min is the change in absorbance per minute at 412 nm, Vf is the final volume of the reaction, and VS is the volume of sample added. The total protein concentration of the cell free extract was about 1 mg/mL so the units/mL equals units/mg.

[2] = system: 3-hydroxypropionyl-CoA dehydratase (OS19); test: 3-hydroxypropionyl-CoA dehydratase specificity control reactions, MALDI-TOF MS; assay type: biochemical, Chloroflexus aurantiacus; conditions: 1 mM CoA ester, 80% D2O
Experimental: Cell free extracts were prepared by growing cells as described above. The cells were harvested by centrifugation and disrupted by sonication. The sonicated cell suspension was centrifuged to remove cell debris, and the supernatant was used in the assays. The ability of the 3-hydroxypropionyl-CoA dehydratase to perform the following three reactions was measured using MALDI-TOF MS:
The assay mixture contained 50 mM Tris-HCl (pH 7.5), 1 mM CoA ester, and about 1 μg cell free extract. Reactions were allowed to proceed at room temperature and were stopped by adding 1 volume 10% trifluroacetic acid (TFA). The reaction mixtures were purified prior to MALDI-TOF MS analysis using Sep Pak Vac C18 50 mg columns (Waters, Inc.). The columns were conditioned with 1 mL methanol and then equilibrated with two washes of 1 mL 0.1% TFA. The sample was applied to the column, and the flow through was discarded. The column was washed twice with 1 mL 0.1% TFA. The sample was eluted in 200 μL 40% acetonitrile, 0.1% TFA. The acetonitrile was removed by centrifugation in vacuo. Samples were prepared for MALDI-TOF MS analysis by mixing 1:1 with 110 mM sinapinic acid in 0.1% TFA, 67% acetonitrile. The samples were allowed to air dry.
A series of control reactions were performed to confirm the specificity of the 3-hydroxypropionyl-CoA dehydratase. […]

[3] = OS17 polypeptide activity, disappearance of NAD(P)H at 340 nm; assay type: biochemical, Chloroflexus aurantiacus; conditions: 3-HP 1 mM as substrate; protein extract of BL21-DE3/pET11a-OS17
Experimental: To assay OS17 polypeptide function, a 100 mL culture of BL21-DE3/pET11a-OS17 cells was started using 1 mL of overnight grown culture as an inoculum. The culture was grown to an OD of 0.5-0.6 and was induced with 100 μM IPTG. After two and a half hours of induction, the cells were harvested by spinning at 8000 rpm in the floor centrifuge. The cells were washed with 10 mM Tris-HCl (pH 7.8) and passed twice through a French Press at a gauge pressure of 1000 psi. The cell debris was removed by centrifugation at 15,000 rpm. The activity of the OS17 polypeptide was measured spectrophotometrically, and the products formed during this enzymatic transformation were detected by LC/MS. The assay mix was as follows (J. Bacteriol., 181:1088-1098 (1999)):
The initial rate of reaction was measured by monitoring the disappearance of NAD(P)H at 340 nm. The activity of the OS17 polypeptide was measured using 3-HP as the substrate. The units/mL of total protein was calculated using the formula set forth in Example 1. The activity of the expressed OS17 polypeptide was calculated to be 0.061 U/mL of total protein. The reaction products were purified using a Sep Pak Vac column (Waters). The column was conditioned with 1 mL methanol and washed two times with 0.5 mL 0.1% TFA. […] The reaction products were analyzed by LC/MS.

Molecule | CoA transferase activity, Units/mg [1] | activity of 3-hydroxypropionyl-CoA dehydratase enzyme on CoA ester [2] | activity of the expressed OS17 polypeptide [3]
CC(C)(COP(=O)(O)OP(=O)(O)OC[C@H]1O[C@@H](n2cnc3c(N)ncnc32)[C@H](O)[C@@H]1OP(=O)(O)O)[C@@H](O)C(=O)NCCC(=O)NCCSC(=O)CCO [3-Hydroxypropionyl-CoA] | 110 Units/mg | active | 
C=CC(=O)SCCNC(=O)CCNC(=O)[C@H](O)C(C)(C)COP(=O)(O)OP(=O)(O)OC[C@H]1O[C@@H](n2cnc3c(N)ncnc32)[C@H](O)[C@@H]1OP(=O)(O)O [Acrylyl-CoA] | 118 Units/mg |  | 
CC(O)C(=O)SCCNC(=O)CCNC(=O)[C@H](O)C(C)(C)COP(=O)(O)OP(=O)(O)OC[C@H]1O[C@@H](n2cnc3c(N)ncnc32)[C@H](O)[C@@H]1OP(=O)(O)O (stereo partly shown) [Lactyl-CoA] | 211 Units/mg | not active | 
CCC(=O)SCCNC(=O)CCNC(=O)[C@H](O)C(C)(C)COP(=O)(O)OP(=O)(O)OC[C@H]1O[C@@H](n2cnc3c(N)ncnc32)[C@H](O)[C@@H]1OP(=O)(O)O [Propionyl-CoA] | 144 Units/mg |  | 
OS17 polypeptide: C. aurantiacus polypeptide having CoA synthase, dehydratase, and dehydrogenase activity (propionyl-CoA synthetase) |  |  | 0.061 U/mL of total protein
